Measured values published in patent US9125913B2, “Bcl-2-selective apoptosis-inducing agents for the treatment of cancer and immune diseases” (AbbVie Inc., priority 2008, dated 2015).

Test system: GST-Bcl-2
Assay: TR-FRET binding assay, Bcl-2
Details: TR-FRET Ki values
How it was run: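 Ki values come from Wang's competitive-binding equation applied to TR-FRET signal (excitation 340/35 nm; emission 520/525 nm F-Bak peptide, 495/510 nm Tb antibody). Protein, probe and antibody incubated with compound 3 h at room temperature; dilution series began at 50 μM as 2× stock in 10% DMSO.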

Structure (SMILES)	Binding selectivity ratio (Bcl-XL Ki/Bcl-2 Ki)
CC1(C)CCC(CN2CCN(c3ccc(C(=O)NS(=O)(=O)c4cnc(OCCN5CCOCC5)c(C#N)c4)c(Oc4cccc5[nH]ccc45)c3)CC2)=C(c2ccc(Cl)cc2)C1 [EXAMPLE 392, 4-(4-{[2-(4-chlorophenyl)-4,4-dimethylcyclohex-1-en-1-yl]methyl}piperazin-1-yl)-N-{[5-cyano-6-(2-morpholin-4-ylethoxy)pyridin-3-yl]sulfonyl}-2-(1H-indol-4-yloxy)benzamide]	320.2
CC1(C)CCC(CN2CCN(c3ccc(C(=O)NS(=O)(=O)c4cnc(OCC5(F)CCOCC5)c(C#N)c4)c(Oc4cccc5[nH]ccc45)c3)CC2)=C(c2ccc(Cl)cc2)C1 [EXAMPLE 393, 4-(4-{[2-(4-chlorophenyl)-4,4-dimethylcyclohex-1-en-1-yl]methyl}piperazin-1-yl)-N-({5-cyano-6-[(4-fluorotetrahydro-2H-pyran-4-yl)methoxy]pyridin-3-yl}sulfonyl)-2-(1H-indol-4-yloxy)benzamide]	1110
COc1ccc(Nc2ccc(S(=O)(=O)NC(=O)c3ccc(N4CCN(CC5=C(c6ccc(Cl)cc6)CC(C)(C)CC5)CC4)cc3Oc3ccc4[nH]ccc4c3)cc2[N+](=O)[O-])cc1O [EXAMPLE 394, 4-(4-{[2-(4-chlorophenyl)-4,4-dimethylcyclohex-1-en-1-yl]methyl}piperazin-1-yl)-N-({4-[(3-hydroxy-4-methoxyphenyl)amino]-3-nitrophenyl}sulfonyl)-2-(1H-indol-5-yloxy)benzamide]	>263262.863980854
CN1CCC(Nc2ccc(S(=O)(=O)NC(=O)c3ccc(N4CCN(CC5=C(c6ccc(Cl)cc6)CC(C)(C)CC5)CC4)cc3Oc3cccc4c3CCN4)cc2[N+](=O)[O-])CC1 [EXAMPLE 395, 4-(4-{[2-(4-chlorophenyl)-4,4-dimethylcyclohex-1-en-1-yl]methyl}piperazin-1-yl)-2-(2,3-dihydro-1H-indol-4-yloxy)-N-({4-[(1-methylpiperidin-4-yl)amino]-3-nitrophenyl}sulfonyl)benzamide]	23.62
CN1CCC(Nc2ccc(S(=O)(=O)NC(=O)c3ccc(N4CCN(CC5=C(c6ccc(Cl)cc6)CC(C)(C)CC5)CC4)cc3Nc3cccnc3)cc2[N+](=O)[O-])CC1 [EXAMPLE 396, 4-(4-{[2-(4-chlorophenyl)-4,4-dimethylcyclohex-1-en-1-yl]methyl}piperazin-1-yl)-N-({4-[(1-methylpiperidin-4-yl)amino]-3-nitrophenyl}sulfonyl)-2-(pyridin-3-ylamino)benzamide]	>5706
CC1(C)CCC(CN2CCN(c3ccc(C(=O)NS(=O)(=O)c4ccc(NC5CCN(C6CCOCC6)CC5)c([N+](=O)[O-])c4)c(Nc4cccnc4)c3)CC2)=C(c2ccc(Cl)cc2)C1 [EXAMPLE 397, 4-(4-{[2-(4-chlorophenyl)-4,4-dimethylcyclohex-1-en-1-yl]methyl}piperazin-1-yl)-N-({3-nitro-4-[(1-tetrahydro-2H-pyran-4-ylpiperidin-4-yl)amino]phenyl}sulfonyl)-2-(pyridin-3-ylamino)benzamide]	>28730.6285913286
CC1(C)CCC(CN2CCN(c3ccc(C(=O)NS(=O)(=O)c4ccc(NC5CCN(C6CCOCC6)CC5)c([N+](=O)[O-])c4)c(Oc4cccnc4)c3)CC2)=C(c2ccc(Cl)cc2)C1 [EXAMPLE 398, 4-(4-{[2-(4-chlorophenyl)-4,4-dimethylcyclohex-1-en-1-yl]methyl}piperazin-1-yl)-N-({3-nitro-4-[(1-tetrahydro-2H-pyran-4-ylpiperidin-4-yl)amino]phenyl}sulfonyl)-2-(pyridin-3-yloxy)benzamide]	67.69
CC1(C)CCC(CN2CCN(c3ccc(C(=O)NS(=O)(=O)c4ccc(NCC5CCOCC5)c([N+](=O)[O-])c4)c(Oc4cccc5c4CCNC5)c3)CC2)=C(c2ccc(Cl)cc2)C1 [EXAMPLE 399, 4-(4-{[2-(4-chlorophenyl)-4,4-dimethylcyclohex-1-en-1-yl]methyl}piperazin-1-yl)-N-({3-nitro-4-[(tetrahydro-2H-pyran-4-ylmethyl)amino]phenyl}sulfonyl)-2-(1,2,3,4-tetrahydroisoquinolin-5-yloxy)benzamide]	>225764.520763495
CC1(C)CCC(CN2CCN(c3ccc(C(=O)NS(=O)(=O)c4ccc(NCC5CCOCC5)c([N+](=O)[O-])c4)c(Oc4cccc5[nH]ncc45)c3)CC2)=C(c2ccc(Cl)cc2)C1 [EXAMPLE 400, 4-(4-{[2-(4-chlorophenyl)-4,4-dimethylcyclohex-1-en-1-yl]methyl}piperazin-1-yl)-2-(1H-indazol-4-yloxy)-N-({3-nitro-4-[(tetrahydro-2H-pyran-4-ylmethyl)amino]phenyl}sulfonyl)benzamide]	>3643.8
CC1(C)CCC(CN2CCN(c3ccc(C(=O)NS(=O)(=O)c4ccc(NC5CCN(C6CCOCC6)CC5)c([N+](=O)[O-])c4)c(Oc4cccc5[nH]ncc45)c3)CC2)=C(c2ccc(Cl)cc2)C1 [EXAMPLE 401, 4-(4-{[2-(4-chlorophenyl)-4,4-dimethylcyclohex-1-en-1-yl]methyl}piperazin-1-yl)-2-(1H-indazol-4-yloxy)-N-({3-nitro-4-[(1-tetrahydro-2H-pyran-4-ylpiperidin-4-yl)amino]phenyl}sulfonyl)benzamide]	>162.14
CC1(C)CCC(CN2CCN(c3ccc(C(=O)NS(=O)(=O)c4ccc(N[C@H]5CC[C@H](N6CCOCC6)CC5)c([N+](=O)[O-])c4)c(Oc4cccc5[nH]ncc45)c3)CC2)=C(c2ccc(Cl)cc2)C1 [EXAMPLE 402, Trans-4-(4-{[2-(4-chlorophenyl)-4,4-dimethylcyclohex-1-en-1-yl]methyl}piperazin-1-yl)-2-(1H-indazol-4-yloxy)-N-({4-[(4-morpholin-4-ylcyclohexyl)amino]-3-nitrophenyl}sulfonyl)benzamide]	137.4
CC1(C)CCC(CN2CCN(c3ccc(C(=O)NS(=O)(=O)c4cnc(OCC5(F)CCOCC5)c(Cl)c4)c(Oc4cccc5[nH]ncc45)c3)CC2)=C(c2ccc(Cl)cc2)C1 [EXAMPLE 404, N-({5-chloro-6-[(4-fluorotetrahydro-2H-pyran-4-yl)methoxy]pyridin-3-yl}sulfonyl)-4-(4-{[2-(4-chlorophenyl)-4,4-dimethylcyclohex-1-en-1-yl]methyl}piperazin-1-yl)-2-(1H-indazol-4-yloxy)benzamide]	2423
CC1(C)CCC(CN2CCN(c3ccc(C(=O)NS(=O)(=O)c4cnc(OCC5(F)CCOCC5)c(Cl)c4)c(Oc4cccc5[nH]ccc45)c3)CC2)=C(c2ccc(Cl)cc2)C1 [EXAMPLE 405, N-({5-chloro-6-[(4-fluorotetrahydro-2H-pyran-4-yl)methoxy]pyridin-3-yl}sulfonyl)-4-(4-{[2-(4-chlorophenyl)-4,4-dimethylcyclohex-1-en-1-yl]methyl}piperazin-1-yl)-2-(1H-indol-4-yloxy)benzamide]	1395
CC1(C)CCC(CN2CCN(c3ccc(C(=O)NS(=O)(=O)c4ccc(N[C@@H]5CCN(CC(F)F)C5)c([N+](=O)[O-])c4)c(Oc4cccc5[nH]cnc45)c3)CC2)=C(c2ccc(Cl)cc2)C1 [EXAMPLE 407, 2-(1H-benzimidazol-4-yloxy)-4-(4-{[2-(4-chlorophenyl)-4,4-dimethylcyclohex-1-en-1-yl]methyl}piperazin-1-yl)-N-[(4-{[(3R)-1-(2,2-difluoroethyl)pyrrolidin-3-yl]amino}-3-nitrophenyl)sulfonyl]benzamide]	4931
CC1(C)CCC(CN2CCN(c3ccc(C(=O)NS(=O)(=O)c4ccc(NCC5(F)CCOCC5)c([N+](=O)[O-])c4)c(Oc4cccc5[nH]ncc45)c3)CC2)=C(c2ccc(Cl)cc2)C1 [EXAMPLE 409, 4-(4-{[2-(4-chlorophenyl)-4,4-dimethylcyclohex-1-en-1-yl]methyl}piperazin-1-yl)-N-[(4-{[(4-fluorotetrahydro-2H-pyran-4-yl)methyl]amino}-3-nitrophenyl)sulfonyl]-2-(1H-indazol-4-yloxy)benzamide]	1748.5
CC1(C)CCC(CN2CCN(c3ccc(C(=O)NS(=O)(=O)c4ccc(NCC5CN(C6CC6)CCO5)c([N+](=O)[O-])c4)c(Oc4cccc5[nH]ncc45)c3)CC2)=C(c2ccc(Cl)cc2)C1 (stereo not shown) [EXAMPLE 411, 4-(4-{[2-(4-chlorophenyl)-4,4-dimethylcyclohex-1-en-1-yl]methyl}piperazin-1-yl)-N-[(4-{[(4-cyclopropylmorpholin-2-yl)methyl]amino}-3-nitrophenyl)sulfonyl]-2-(1H-indazol-4-yloxy)benzamide]	2352
CC1(C)CCC(CN2CCN(c3ccc(C(=O)NS(=O)(=O)c4ccc(NCC5CCC(F)(F)CC5)c([N+](=O)[O-])c4)c(Oc4cccc5[nH]ncc45)c3)CC2)=C(c2ccc(Cl)cc2)C1 [EXAMPLE 412, 4-(4-{[2-(4-chlorophenyl)-4,4-dimethylcyclohex-1-en-1-yl]methyl}piperazin-1-yl)-N-[(4-{[(4,4-difluorocyclohexyl)methyl]amino}-3-nitrophenyl)sulfonyl]-2-(1H-indazol-4-yloxy)benzamide]	6545
CC1(C)CCC(CN2CCN(c3ccc(C(=O)NS(=O)(=O)c4cnc(NCC5(F)CCOCC5)c(Cl)c4)c(Oc4cccc5[nH]ncc45)c3)CC2)=C(c2ccc(Cl)cc2)C1 [EXAMPLE 413, N-[(5-chloro-6-{[(4-fluorotetrahydro-2H-pyran-4-yl)methyl]amino}pyridin-3-yl)sulfonyl]-4-(4-{[2-(4-chlorophenyl)-4,4-dimethylcyclohex-1-en-1-yl]methyl}piperazin-1-yl)-2-(1H-indazol-4-yloxy)benzamide]	803.8
CC1(C)CCC(CN2CCN(c3ccc(C(=O)NS(=O)(=O)c4ccc(NCC5CN(CC(F)F)CCO5)c([N+](=O)[O-])c4)c(Oc4cccc5[nH]cnc45)c3)CC2)=C(c2ccc(Cl)cc2)C1 (stereo not shown) [EXAMPLE 415, 2-(1H-benzimidazol-4-yloxy)-4-(4-{[2-(4-chlorophenyl)-4,4-dimethylcyclohex-1-en-1-yl]methyl}piperazin-1-yl)-N-{[4-({[4-(2,2-difluoroethyl)morpholin-2-yl]methyl}amino)-3-nitrophenyl]sulfonyl}benzamide]	17326.89211
